# Results taken from ChEMBL document CHEMBL1201862, “PubChem BioAssay data set” (2004).
#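 Assay format: 96-well plates, 48-hour exposure. GI50 = concentration required for 50% inhibition of growth.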 Active and inactive are the calls of the source. Cut-off read from the data, not from the text of the source: active = GI50 up to about 1.1 µM and inactive = higher.
# How the values were obtained:
# Test in all cases: growth of human tumour cells (NCI), 48 h
# [1] = test system: SF-295
# [2] = test system: NCI-H23
# [3] = test system: BT-549
# [4] = test system: ACHN
# [5] = test system: NCI-H460
# [6] = test system: NCI-H522
# [7] = test system: SK-OV-3
# [8] = test system: 786-0
# [9] = test system: SF-539
# [10] = test system: UO-31
# [11] = test system: HCT-15
# [12] = test system: M14
# [13] = test system: MDA-MB-231
# [14] = test system: UACC-62
# [15] = test system: OVCAR-5
# [16] = test system: SK-MEL-28
# [17] = test system: OVCAR-4
# [18] = test system: SNB-75
# [19] = test system: UACC-257
# [20] = test system: T47D
# [21] = test system: SNB-19
# [22] = test system: COLO 205
# [23] = test system: SF-268
# [24] = test system: MDA-MB-435
# [25] = test system: NCI/ADR-RES
# [26] = test system: EKVX
# [27] = test system: RPMI-8226
# [28] = test system: KM12
# [29] = test system: TK-10
# [30] = test system: HL-60
# [31] = test system: SW-620
# [32] = test system: SN12C
# [33] = test system: CAKI-1
# [34] = test system: DU-145
# [35] = test system: MOLT-4
# [36] = test system: HOP-62
# [37] = test system: PC-3
# [38] = test system: HCC 2998
# [39] = test system: NCI-H226
# [40] = test system: MDA-N
# [41] = test system: Hs-578T
# [42] = test system: OVCAR-3
# [43] = test system: CCRF-CEM
# [44] = test system: A498
# [45] = test system: U-251
# [46] = test system: HCT-116
# [47] = test system: HT-29
# [48] = test system: Malme-3M
# [49] = test system: SK-MEL-2
# [50] = test system: MCF7
# [51] = test system: A549
# [52] = test system: SK-MEL-5
# [53] = test system: LOX IMVI
# [54] = test system: SR
# [55] = test system: IGROV-1
# [56] = test system: OVCAR-8
# [57] = test system: K562
structure (smiles),measurement,setting,value
COc1cc2c(cc1OC)C1=Cc3ccc(OC)c(OC)c3C(C#N)N1CC2 (configuration not stated),GI50,[1],37.1 µM (inactive)
same,GI50,[2],29.8 µM (inactive)
same,GI50,[3],14.6 µM (inactive)
same,GI50,[4],> 100 µM (inactive)
same,GI50,[5],31.7 µM (inactive)
same,GI50,[6],30 µM (inactive)
same,GI50,[7],> 100 µM (inactive)
same,GI50,[8],78.5 µM (inactive)
same,GI50,[9],13.8 µM (inactive)
same,GI50,[10],> 100 µM (inactive)
same,GI50,[11],> 100 µM
same,GI50,[12],50.2 µM (inactive)
same,GI50,[13],28.8 µM (inactive)
same,GI50,[14],17.1 µM (inactive)
same,GI50,[15],> 100 µM (inactive)
same,GI50,[16],32.4 µM (inactive)
same,GI50,[17],67 µM (inactive)
same,GI50,[18],5.22 µM (inactive)
same,GI50,[19],17.7 µM (inactive)
same,GI50,[20],9.2 µM (inactive)
same,GI50,[21],41.3 µM (inactive)
same,GI50,[22],18.2 µM (inactive)
same,GI50,[23],29.7 µM (inactive)
same,GI50,[24],25.9 µM (inactive)
same,GI50,[25],> 100 µM (inactive)
same,GI50,[26],96.8 µM (inactive)
same,GI50,[27],20.7 µM (inactive)
same,GI50,[28],21.1 µM (inactive)
same,GI50,[29],> 100 µM (inactive)
same,GI50,[30],39 µM (inactive)
same,GI50,[31],47.6 µM (inactive)
same,GI50,[32],35.2 µM (inactive)
same,GI50,[33],> 100 µM (inactive)
same,GI50,[34],39.7 µM (inactive)
same,GI50,[35],33.1 µM (inactive)
same,GI50,[36],42.4 µM (inactive)
same,GI50,[37],32.4 µM (inactive)
same,GI50,[38],18.5 µM (inactive)
same,GI50,[39],> 100 µM (inactive)
same,GI50,[40],33.7 µM (inactive)
same,GI50,[41],35.8 µM (inactive)
same,GI50,[42],34.2 µM (inactive)
same,GI50,[43],37.9 µM (inactive)
same,GI50,[44],> 100 µM (inactive)
same,GI50,[45],21.6 µM (inactive)
same,GI50,[46],36.1 µM (inactive)
same,GI50,[47],33.7 µM (inactive)
same,GI50,[48],22.4 µM (inactive)
same,GI50,[49],19.7 µM (inactive)
same,GI50,[50],29.7 µM (inactive)
same,GI50,[51],56.4 µM (inactive)
same,GI50,[52],17.2 µM (inactive)
O=C(Nc1ccccc1F)c1cc2ccc(O)cc2o/c1=N\c1cccc(C(F)(F)F)c1,GI50,[1],4.99 µM (inactive)
same,GI50,[2],1.76 µM (inactive)
same,GI50,[3],2.67 µM (inactive)
same,GI50,[4],3.57 µM (inactive)
same,GI50,[5],3.22 µM (inactive)
same,GI50,[6],2 µM (inactive)
same,GI50,[7],3.78 µM (inactive)
same,GI50,[8],4.57 µM (inactive)
same,GI50,[9],3.9 µM (inactive)
same,GI50,[10],3.85 µM (inactive)
same,GI50,[11],3.59 µM
same,GI50,[12],5.18 µM (inactive)
same,GI50,[14],3.81 µM (inactive)
same,GI50,[53],2.69 µM (inactive)
same,GI50,[15],26.5 µM (inactive)
same,GI50,[16],3.82 µM (inactive)
same,GI50,[17],2.63 µM (inactive)
same,GI50,[54],3.31 µM (inactive)
same,GI50,[19],4.02 µM (inactive)
same,GI50,[55],2.08 µM (inactive)
same,GI50,[20],2.59 µM (inactive)
same,GI50,[21],5.87 µM (inactive)
same,GI50,[22],18.6 µM (inactive)
same,GI50,[23],2.82 µM (inactive)
same,GI50,[24],3.51 µM (inactive)
same,GI50,[25],3.22 µM (inactive)
same,GI50,[26],3.76 µM (inactive)
same,GI50,[27],2.05 µM (inactive)
same,GI50,[28],3.71 µM (inactive)
same,GI50,[30],1.66 µM (inactive)
same,GI50,[31],3.08 µM (inactive)
same,GI50,[56],2.18 µM (inactive)
same,GI50,[33],3.79 µM (inactive)
same,GI50,[34],4.04 µM (inactive)
same,GI50,[35],2.94 µM (inactive)
same,GI50,[36],7.91 µM (inactive)
same,GI50,[37],3.76 µM (inactive)
same,GI50,[38],8.2 µM (inactive)
same,GI50,[40],3.73 µM (inactive)
same,GI50,[41],1.94 µM (inactive)
same,GI50,[42],3.77 µM (inactive)
same,GI50,[43],1.92 µM (inactive)
same,GI50,[44],7.4 µM (inactive)
same,GI50,[57],2.85 µM (inactive)
same,GI50,[45],3.73 µM (inactive)
same,GI50,[46],2.85 µM (inactive)
same,GI50,[47],32.1 µM (inactive)
same,GI50,[48],2.69 µM (inactive)
same,GI50,[49],4.36 µM (inactive)
same,GI50,[50],2.94 µM (inactive)
same,GI50,[51],3.18 µM (inactive)
same,GI50,[52],1.94 µM (inactive)
O=S(=O)(c1ccc(/N=N/O)nc1)c1ccc2ccccc2c1,GI50,[1],> 100 µM (inactive)
same,GI50,[2],65.9 µM (inactive)
same,GI50,[3],> 100 µM (inactive)
same,GI50,[4],> 100 µM (inactive)
same,GI50,[5],65.8 µM (inactive)
same,GI50,[6],> 100 µM (inactive)
same,GI50,[7],> 100 µM (inactive)
same,GI50,[8],> 100 µM (inactive)
same,GI50,[9],> 100 µM (inactive)
same,GI50,[10],23.1 µM (inactive)
same,GI50,[11],> 100 µM
same,GI50,[12],> 100 µM (inactive)
same,GI50,[13],> 100 µM (inactive)
same,GI50,[14],98.4 µM (inactive)
same,GI50,[15],> 100 µM (inactive)
same,GI50,[16],> 100 µM (inactive)
same,GI50,[17],32.6 µM (inactive)
same,GI50,[54],> 100 µM (inactive)
same,GI50,[18],22.1 µM (inactive)
same,GI50,[19],> 100 µM (inactive)
same,GI50,[55],54.8 µM (inactive)
same,GI50,[20],40 µM (inactive)
same,GI50,[21],> 100 µM (inactive)
same,GI50,[22],97.3 µM (inactive)
same,GI50,[23],> 100 µM (inactive)
same,GI50,[25],> 100 µM (inactive)
same,GI50,[26],> 100 µM (inactive)
same,GI50,[28],> 100 µM (inactive)
same,GI50,[29],94 µM (inactive)
same,GI50,[30],47.8 µM (inactive)
same,GI50,[31],> 100 µM (inactive)
same,GI50,[32],95.5 µM (inactive)
same,GI50,[56],> 100 µM (inactive)
same,GI50,[33],88.5 µM (inactive)
same,GI50,[34],> 100 µM (inactive)
same,GI50,[35],> 10 µM (inactive)
same,GI50,[36],> 100 µM (inactive)
same,GI50,[37],38.5 µM (inactive)
same,GI50,[39],> 100 µM (inactive)
same,GI50,[40],> 100 µM (inactive)
same,GI50,[41],> 100 µM (inactive)
same,GI50,[42],> 100 µM (inactive)
same,GI50,[43],29.3 µM (inactive)
same,GI50,[44],> 100 µM (inactive)
same,GI50,[57],75 µM (inactive)
same,GI50,[45],> 100 µM (inactive)
same,GI50,[46],> 100 µM (inactive)
same,GI50,[47],65.8 µM (inactive)
same,GI50,[48],26.5 µM (inactive)
same,GI50,[49],> 100 µM (inactive)
same,GI50,[50],> 100 µM (inactive)
same,GI50,[51],> 100 µM (inactive)
same,GI50,[52],36.8 µM (inactive)
